Assay results reported in ChEMBL document CHEMBL1156350, “New multiflorane-type triterpenoid acids from Sandoricum indicum” (J Nat Prod, 2001).
≈ marks a conversion by molar mass, not a printed value.

Columns and labels:
Type in all cases: functional, cell-based
P388 [1] = assay: Cytotoxicity against vincristine-resistant mouse P388 cells in presence of vincristine
P388 [2] = assay: Cytotoxicity against adriamycin-resistant mouse P388 cells in presence of adriamycin
P388 [3] = assay: Cytotoxicity against adriamycin-resistant mouse P388 cells
P388/S = assay: Cytotoxicity against drug-sensitive mouse P388/S cells
P388 [4] = assay: Cytotoxicity against vincristine-resistant mouse P388 cells
Lymphocyte = assay: Immunosuppressant activity in mouse lymphocytes assessed as inhibition of lymphocyte proliferation
HL-60 = assay: Cytotoxicity against human HL60 cells

Row | SMILES | IC50 (P388 [1]) [µg/mL] | IC50 (P388 [2]) [µg/mL] | IC50 (P388 [3]) [µg/mL] | IC50 (P388/S) [µg/mL] | IC50 (P388 [4]) [µg/mL] | IC50 (Lymphocyte) [µg/mL] | IC50 (HL-60) [µg/mL]
1 | CC1(C)[C@@H](O)CC[C@]2(C)[C@H]3CC=C4[C@@H]5C[C@](C)(C(=O)O)CC[C@]5(C)CC[C@@]4(C)[C@]3(C)CC[C@@H]12 | > 25 | > 25 | > 25 | > 25 | > 25 | 50 (≈ 109 µM) | –
2 | CC1(C)C(=O)CC[C@]2(C)[C@H]3CC=C4[C@@H]5C[C@](C)(C(=O)O)CC[C@]5(C)CC[C@@]4(C)[C@]3(C)CC[C@@H]12 | 12 | > 25 | > 25 | > 25 | 12 (≈ 26.4 µM) | 25 (≈ 55 µM) | 15 (≈ 33 µM)
3 | C=C(C)[C@@H]1CC[C@]2(C)[C@H](CC=C3[C@@H]4C[C@](C)(C(=O)O)CC[C@]4(C)CC[C@]32C)[C@@]1(C)CCC(=O)O | > 25 | > 25 | > 25 | > 25 | > 25 | > 100 | –
4 | CC1(C)[C@H](O)CC[C@]2(C)[C@H]3CC=C4[C@@H]5C[C@](C)(C(=O)O)CC[C@]5(C)CC[C@@]4(C)[C@]3(C)CC[C@@H]12 [KATONIC ACID] | 16 | > 25 | > 25 | > 25 | 25 (≈ 54.7 µM) | 25 (≈ 54.7 µM) | –
5 | C=C(C)[C@@H]1CC[C@]2(C)[C@H](CC=C3[C@@H]4C[C@@](C)(C(=O)O)CC[C@]4(C)CC[C@]32C)[C@@]1(C)CCC(=O)O [KOETJAPIC ACID] | > 25 | > 25 | > 25 | > 25 | > 25 | > 100 | –
6 | CC1(C)C(=O)CC[C@]2(C)C3=C(CC[C@@H]12)[C@@]1(C)CC[C@@]2(C)CC[C@@](C)(C(=O)O)C[C@@]2(O)[C@]1(C)[C@H](O)C3 [SANDORINIC ACID A] | 9 | 9 | 9 (≈ 18.5 µM) | 16 (≈ 32.9 µM) | 10 (≈ 20.5 µM) | 25 (≈ 51.4 µM) | 15 (≈ 30.8 µM)
7 | CC1(C)C(=O)CC[C@]2(C)[C@H]3C[C@@H](O)[C@@]4(C)[C@]5(O)C[C@](C)(C(=O)O)CC[C@]5(C)CC[C@]4(C)C3=CC[C@@H]12 [SANDORINIC ACID B] | 16 | > 25 | 18 (≈ 37 µM) | > 25 | 16 (≈ 32.9 µM) | 50 (≈ 103 µM) | –
8 | CC1(C)C(=O)CC[C@]2(C)C3=C(CC[C@@H]12)[C@@]1(C)CC[C@@]2(C)CC[C@@](C)(C(=O)O)C[C@H]2[C@]1(C)[C@H](O)C3 [SANDORINIC ACID C] | > 25 | > 25 | > 25 | > 25 | > 25 | – | –
